Results from patent US10155948B2, “Pharmaceutical composition for preventing or treating diabetic complications and screening method for preventive or therapeutic agent for diabetic complications” (KANGWON NATIONAL UNIVERSITY UNIVERSITY-INDUSTRY COOPERATION …, priority 2016, dated 2018).

Legend:
HRECs = assay: In-vitro endothelial cell monolayer permeability assay (FITC-dextran, Transwell); assay type: cell-based, human; details: 50 μM cystamine, 20 μM MDC or 100 nM dasatinib 30 min, 10 ng/ml VEGF 90 min, p<0.01
Experimental: In-vitro permeability assay was performed as previously described. HRECs were grown on gelatin-coated inserts (0.4 μm polycarbonate membrane) of Transwell® Permeable Supports (Costar, Corning, N.Y., USA) up to confluence. Approximately 1.0×10^5 cells in 0.5 ml of culture medium were seeded on the upper side of the membrane while 1 ml of culture medium was added to the lower compartment. […] The amount of FITC-dextran that diffused through the endothelial monolayer into the lower chamber was measured using a microplate spectrofluorometer (Molecular Devices, Sunnyvale, Calif., USA).
(A-C) HRECs were preincubated with 50 μM cystamine (Cys) and 20 μM MDC for 30 min and treated with 10 ng/ml VEGF. […] (C) Adherens junctions were quantitatively analyzed using the peak fluorescence intensities of the histograms at the single-cell level. The results are expressed as mean±SD from three independent trials. […] The amount of FITC-dextran that diffused to the lower chamber was measured by a microplate spectrofluorometer (n=3) (**p<0.01).
(A) β-catenin was visualized by confocal microscopy. […] (B) cSrc phosphorylation at Tyr^416 was analyzed by Western blot. […] Results are expressed as mean±SD from three independent experiments (**p<0.01, ***p<0.001).

TGase = biological target: T1, TGase (Homo sapiens, UniProt P21980); assay: VEGF-induced TGase activation in HUVECs; assay type: cell-based
T1 construct: endogenous in cells; host or cells: HUVECs (isolated in house)
T1 sequence (P21980 1-687): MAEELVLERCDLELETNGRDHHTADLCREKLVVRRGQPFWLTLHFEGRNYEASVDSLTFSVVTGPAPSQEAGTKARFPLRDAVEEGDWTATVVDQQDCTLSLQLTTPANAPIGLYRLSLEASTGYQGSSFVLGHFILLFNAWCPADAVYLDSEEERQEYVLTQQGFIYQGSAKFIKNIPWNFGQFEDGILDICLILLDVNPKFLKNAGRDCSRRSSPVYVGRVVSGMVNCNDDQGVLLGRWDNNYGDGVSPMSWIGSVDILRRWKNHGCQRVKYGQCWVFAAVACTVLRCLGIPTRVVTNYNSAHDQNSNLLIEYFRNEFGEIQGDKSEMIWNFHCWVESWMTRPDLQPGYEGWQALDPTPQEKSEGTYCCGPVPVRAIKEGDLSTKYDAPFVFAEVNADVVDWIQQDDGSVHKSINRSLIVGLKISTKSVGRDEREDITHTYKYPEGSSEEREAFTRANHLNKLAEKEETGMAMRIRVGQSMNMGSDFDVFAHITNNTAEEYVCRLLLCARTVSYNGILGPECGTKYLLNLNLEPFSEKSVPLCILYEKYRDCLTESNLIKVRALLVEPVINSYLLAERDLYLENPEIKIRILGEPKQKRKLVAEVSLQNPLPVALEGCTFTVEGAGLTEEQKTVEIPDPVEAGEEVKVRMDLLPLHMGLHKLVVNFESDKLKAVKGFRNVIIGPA
Experimental: (§1) Both respectively were grown on 2% gelatin-coated plates in a M199 medium supplemented with 20% fetal bovine serum (FBS), 3 ng/ml basic fibroblastic growth factor, 5 units/ml heparin, 100 units/ml penicillin, and 100 μg/ml streptomycin. For experiments, cells were incubated for 6 hrs in a low-serum medium supplemented with 1% FBS and antibiotics.
In-situ Tgase transamidating activity was determined via confocal microscopic assay according to a previously known procedure. In brief, cells were incubated with 1 mM 5-(biotinamido)pentylamine (BAPA) for 1 hr at 37° C., fixed with 3.7% formaldehyde in PBS for 30 min, and permeabilized with 0.2% Triton X-100 in PBS for 30 min. After incubation with a blocking solution of 2% BSA in 20 mM Tris (pH 7.6), 138 mM NaCl, and 0.1% Tween 20 for 30 min, cells were treated with Cy3-conjugated streptavidin (1:200, v/v) in the blocking solution for 1 hr. Single-cell fluorescence intensities of stained cells were determined using confocal microscopy for 10 randomly selected cells per test. TGase activities were determined by comparing average fluorescence intensities of treated cells with those of control cells (expressed as multiples thereof).

HUVECs = assay: VEGF-induced ROS generation in HUVECs; assay type: cell-based, human
Experimental: as §1
Intracellular ROS generation was determined using 2′,7′-dichlorodihydrofluorescein diacetate (H2DCFDA, Molecular Probes, Eugene, Oreg.) staining as previously described. Cells were pretreated with inhibitors for 30 min and co-incubated with 10 ng/ml of VEGF and 10 μM H2DCFDA in low-serum media (phenol red-free) for 10 min. Labeled cells were immediately analyzed using confocal microscopy (Fluoview-300, Olympus). Single-cell fluorescence intensities were determined for 10 randomly selected cells per test. Intracellular ROS levels were determined by comparing average fluorescence intensities of treated cells with those of control cells (expressed as multiples thereof).

TGase2 = biological target: T2, TGase2 (Homo sapiens, UniProt P21980); details: protein chip-based, dose-dependent
T2 sequence (P21980 1-687): T1 sequence (P21980 1-687)

c-Src = c-Src phosphorylation (Tyr416) by Western blot in HRECs; assay type: cell-based, human; details: 50 μM cystamine or 100 nM dasatinib 30 min, 10 ng/ml VEGF 15 min
Experimental: Cells were incubated with an ice-cold lysis buffer containing 50 mM Tris-HCl (pH 7.5), 1% Triton X-100, 150 mM NaCl, 1 mM EDTA, 0.1 mM phenylmethylsulfonyl fluoride (PMSF), 10 μg/ml aprotinin, and 10 μg/ml leupeptin for 30 min. Cell lysates were separated by SDS-PAGE and transferred to polyvinylidene fluoride membranes. The membranes were blocked with 5% skim milk in TBS with 0.1% Tween for 1 hr at room temperature (RT). […] Protein bands were visualized using a chemiluminescent substrate (Pierce, Rockford, Ill.).

β-catenin = assay: Visualization of β-catenin in HRECs; assay type: cell-based, human; details: 50 μM cystamine or 100 nM dasatinib 30 min, 10 ng/ml VEGF 90 min
Experimental: For visualization of β-catenin, cells were preincubated with inhibitors for 30 min and treated with 10 ng/ml VEGF for 90 min, fixed with 3.7% formaldehyde, and permeabilized with 0.2% Triton X-100. Cells were incubated overnight with a monoclonal anti-3-catenin antibody (1:200, Santa Cruz Biotechnology) at 4° C. Cells were then probed with an FITC-conjugated goat anti-mouse antibody (1:200, Sigma) and visualized using confocal microscopy. Images for making galleries were cropped to a smaller size using Microsoft PowerPoint 2010 software.
(A) β-catenin was visualized by confocal microscopy. Scale bar, 30 μm. (B) cSrc phosphorylation at Tyr^416 was analyzed by Western blot. (C) In-vitro endothelial cell monolayer permeability assay. Results are expressed as mean±SD from three independent experiments (**p<0.01, ***p<0.001).

Row | Structure (SMILES) | VEGF-increased in-vitro endothelial permeability (HRECs) | VEGF-enhanced TGase activation (TGase) | VEGF-enhanced ROS generation (HUVECs) | TGase2 activity (TGase2) | VEGF-induced c-Src phosphorylation (Tyr416) (c-Src) | VEGF-induced β-catenin breakdown (β-catenin)
1 | CN(C)c1cccc2c(S(=O)(=O)NCCCCCN)cccc12 [MDC, monodansylcadaverine] | inhibited |  |  |  |  | 
2 | NCCS [cysteamine] |  | inhibited | inhibited | inhibited |  | 
3 | NCCSSCCN [cystamine] | inhibited |  |  |  | prevented | inhibited
4 | NCCc1ccc(O)c(O)c1 [dopamine] |  | inhibited | inhibited | inhibited |  | 
